Patent US8518924B2, “Agent for inhibiting visceral fat accumulation” (Morinaga Milk Industry Co., Ltd., priority 2005, dated 2013)

Tested on: ZDF (Zucker Diabetic Fatty) rats
Assay: Inhibitory effect on visceral fat accumulation (mesenteric fat weight) in high-fat-diet-fed ZDF rats
Assay type: in vivo, rat
Conditions: for Effect of inhibiting visceral fat accumulation (in words): Tukey-Kramer's test vs negative sample; for Mesenteric fat weight as percentage of that of the group administered with the negative sample: oral once a day for 44 days, 45th day; for Mesenteric fat weight: male ZDF rats on high fat diet, oral 1 ml per 400 g body weight once a day for 44 days, measured at 45th day
Description: In Example 1, an inhibitory effect of a compound having a lophenol skeleton on visceral fat accumulation was investigated by using ZDF (Zucker Diabetic Fatty) rats that are model animals for obese diabetes.
Compound 3 (4-methylcholest-7-en-3-ol), Compound 4 (4-methylergost-7-en-3-ol), and Compound 5 (4-methylstigmast-7-en-3-ol) which were produced in Preparation Example 1 were used as Test Samples 1, 2, and 3, respectively. Each of the test samples was dissolved in DMSO, and a concentration of each of the compounds in each of the test samples was adjusted with distilled water to be 10 μg/ml, thereby preparing Test Samples 1-1, 2-1, and 3-1. Test Samples 1-2, 2-2, and 3-2 each having the concentration of a compound of 1 μg/ml were prepared.
At 45th day from initiation of the administration, mesenteric fat weights were measured as the visceral fat.

Row | SMILES | Effect of inhibiting visceral fat accumulation (in words) (1 μg/ml) | Mesenteric fat weight as percentage of that of the group administered with the negative sample (10 μg/ml solution) [%] | Effect of inhibiting visceral fat accumulation (in words) (10 μg/ml) | Mesenteric fat weight (1 μg/ml solution) [g] | Mesenteric fat weight (10 μg/ml solution, listed as Test Sample 1-1) [g] | Mesenteric fat weight (10 μg/ml solution, listed as Test Sample 3-1) [g] | Mesenteric fat weight (10 μg/ml solution, listed as Test Sample 2-1) [g]
1 | CC(C)CCCC(C)C1CCC2C3=CCC4C(C)C(O)CCC4(C)C3CCC21C (stereo not drawn) [Compound 3, 4-methylcholest-7-en-3-ol] | tendency to reduce the visceral fat, but no significant effect was observed | 65.0 | significant effects of inhibiting visceral fat accumulation | 5.63 ± 1.25 | 4.48 ± 1.34 |  | 
2 | CCC(CCC(C)C1CCC2C3=CCC4C(C)C(O)CCC4(C)C3CCC21C)C(C)C (stereo not drawn) [Compound 5, 4-methylstigmast-7-en-3-ol] | tendency to reduce the visceral fat, but no significant effect was observed | 48.7 | significant effects of inhibiting visceral fat accumulation | 6.10 ± 1.67 |  | 3.36 ± 1.67 | 
3 | CC(C)C(C)CCC(C)C1CCC2C3=CCC4C(C)C(O)CCC4(C)C3CCC21C (stereo not drawn) [Compound 4, 4-methylergost-7-en-3-ol] | tendency to reduce the visceral fat, but no significant effect was observed | 54.9 | significant effects of inhibiting visceral fat accumulation | 5.74 ± 1.57 |  |  | 3.78 ± 0.26
